Laboratory results: article PMC11905624 (BMC Biology, 2025)
Peptide text beside a SMILES is read from it.

T1: B2 receptor (Homo sapiens, UniProt P30411)
T1 construct: endogenous in cells; host or cells: HaCaT
T1 sequence (P30411 1-391): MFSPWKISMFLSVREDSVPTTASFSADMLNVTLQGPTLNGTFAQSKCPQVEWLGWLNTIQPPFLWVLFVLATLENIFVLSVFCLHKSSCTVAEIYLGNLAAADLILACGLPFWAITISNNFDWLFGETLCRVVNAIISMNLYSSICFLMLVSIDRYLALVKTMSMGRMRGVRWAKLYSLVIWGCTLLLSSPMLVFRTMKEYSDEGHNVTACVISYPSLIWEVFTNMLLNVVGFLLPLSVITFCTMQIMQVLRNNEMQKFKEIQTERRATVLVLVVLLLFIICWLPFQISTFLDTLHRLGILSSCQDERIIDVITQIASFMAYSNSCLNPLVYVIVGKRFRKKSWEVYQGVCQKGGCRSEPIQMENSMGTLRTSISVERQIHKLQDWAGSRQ


Tests used:
[1] = target: T1, B2 receptor; assay: Intracellular calcium flux in HaCaT cells; type: cell-based
Description: HaCaT cells were seeded onto 96-well plates and, upon reaching full confluence, were starved for 3 h (medium without FBS). […] After 1.5 h in 37 °C, fluorescence intensity (485/525 nm) was recorded continuously for 5 min using FlexStation 3 (Molecular Devices). […] FBS (3%) served as positive control. Results were calculated as area under the curves of RFU fold change from the signal recorded at baseline and adjusted to % of maximum response (FBS) curve. Non-linear regression analyses were performed to generate dose–response curves and calculate EC50 values.

[2] = target: T2, pKLK (Homo sapiens, UniProt P03952); assay: BK release from HMWK by pKLK, HPLC; type: biochemical; conditions: 5 µg HMWK, 500 nM pKLK, 24 h, 50 mM Tris-HCl pH 7.5, 37 °C
T2 construct: purchased Merck
Description: Ten µg of BK or cBK (ProImmune) were incubated with 15 ng of CPM (RnD; 1 h in 50 mM MES buffer pH 6.0 containing 5 mM CaCl2, 0.2% Triton-X100), 20 ng of NEP (RnD; 2 h in 50 mM HEPES buffer pH 7.4 containing 150 mM NaCl, 0,01% Triton-X100) or 40 ng of ACE1 (Merck; 4 h in 20 mM HEPES buffer containing 100 µM ZnCl2, 300 mM KCl) in final volume of 11 µl in 37 °C. Substrate controls were incubated in parallel without enzymes. Five µg of HMWK (Merck) were incubated with 500 nM of pKLK (Merck; 24 h in 50 mM Tris–HCl buffer pH 7.5 containing 100 mM NaCl, 0.01% Triton-X100) in final volume of 35 µl in 37 °C. Reactions were stopped with addition of TFA, TCA, EDTA and inhibitors for ACE1 (1 µM lisinopril), NEP (4 mM thiorphan), pKLK (1 mM AEBSF), and analysed via HPLC.
Absorbance chromatograms (215 nm) were evaluated with the LabSolutions software.

T2 sequence (P03952 20-638): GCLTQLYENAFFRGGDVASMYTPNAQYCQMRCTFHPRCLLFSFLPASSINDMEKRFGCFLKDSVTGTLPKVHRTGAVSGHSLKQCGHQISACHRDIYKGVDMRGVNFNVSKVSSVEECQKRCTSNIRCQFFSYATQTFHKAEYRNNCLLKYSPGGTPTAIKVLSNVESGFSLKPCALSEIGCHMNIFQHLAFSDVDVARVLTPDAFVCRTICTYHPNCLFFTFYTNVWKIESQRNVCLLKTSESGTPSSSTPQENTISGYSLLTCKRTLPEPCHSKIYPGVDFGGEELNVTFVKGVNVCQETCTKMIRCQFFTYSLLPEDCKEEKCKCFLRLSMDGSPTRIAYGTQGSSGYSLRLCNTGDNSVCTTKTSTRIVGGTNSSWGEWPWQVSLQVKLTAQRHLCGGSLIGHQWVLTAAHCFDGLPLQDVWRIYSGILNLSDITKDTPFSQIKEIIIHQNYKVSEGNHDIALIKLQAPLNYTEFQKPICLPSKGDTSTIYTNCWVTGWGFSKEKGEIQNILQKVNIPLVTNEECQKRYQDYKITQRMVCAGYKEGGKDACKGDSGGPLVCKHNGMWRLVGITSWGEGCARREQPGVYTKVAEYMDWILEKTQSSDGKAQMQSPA

pKLK-driven generation of BK [2] | Molecule | B2-stimulatory potential lower than the response elicited by native BK ([1]; 100 nM peptide, calcium sensitive dye) | EC50 ([1]; Calcium Dye 5, AUC of RFU fold change as % of maximum response (FBS), n = 6, mean ± SEM)
 | N=C(N)NCCC[C@H](NC(=O)[C@H](Cc1ccccc1)NC(=O)[C@@H]1CCCN1C(=O)[C@H](CO)NC(=O)[C@H](Cc1ccccc1)NC(=O)CNC(=O)[C@@H]1CCCN1C(=O)[C@@H]1CCCN1C(=O)[C@H](CCCNC(=N)N)NC(N)=O)C(=O)O [cBK] (HELM PEPTIDE1{[N=C(N)NCCC[C@H](NC(N)=O)C(=O)[*:2]].P.P.G.F.S.P.F.R}$$$$V2.0) | over 25% | 26.55 ± 0.0011 nM
abolishes | carbamylated HMWK: carbamylated high molecular weight kininogen (protein, UniProt P01042 19-644, looked up, High molecular weight kininogen carbamylated) Kininogen-1: QESQSEEIDCNDKDLFKAVDAALKKYNSQNQSNNQFVLYRITEATKTVGSDTFYSFKYEIKEGDCPVQSGKTWQDCEYKDAAKAATGECTATVGKRSSTKFSVATQTCQITPAEGPVVTAQYDCLGCVHPISTQSPDLEPILRHGIQYFNNNTQHSSLFMLNEVKRAQRQVVAGLNFRITYSIVQTNCSKENFLFLTPDCKSLWNGDTGECTDNAYIDIQLRIASFSQNCDIYPGKDFVQPPTKICVGCPRDIPTNSPELEETLTHTITKLNAENNATFYFKIDNVKKARVQVVAGKKYFIDFVARETTCSKESNEELTESCETKKLGQSLDCNAEVYVVPWEKKIYPTVNCQPLGMISLMKRPPGFSPFRSSRIGEIKEETTVSPPHTSMAPAQDEERDSGKEQGHTRRHDWGHEKQRKHNLGHGHKHERDQGHGHQRGHGLGHGHEQQHGLGHGHKFKLDDDLEHQGGHVLDHGHKHKHGHGHGKHKNKGKKNGKHNGWKTEHLASSSEDSTTPSAQTQEKTEGPTPIPSLAKPGVTVTFSDFQDSDLIATMMPPISPAPIQSDDDWIPDIQIDPNGLSFNPISDFPDTTSPKCPGRPWKSVSEINPTTQMKESYYFDLTDGLS |  | 
